Measurements from patent US11083735B2, “Methods for treating sleep disorders, sleep disturbances, and related symptoms using aminosterol compositions” (Enterin, Inc., priority 2017, dated 2021).

Columns and labels:
[1] = Preclinical oral studies in dogs (bioavailability, tolerability)
[2] = Pharmacokinetics of orally administered squalamine (ENT-01) in Stage 2; format: in vivo, human; details: Stage 2, oral; for Cmax: squalamine ion, mean
Experimental: Pharmakokinetics: PK data were collected on the 10 patients enrolled in Stage 1 and 10 patients enrolled in Stage 2 to determine the extent of systemic absorption. In Stage 1, PK data were obtained at each visit, pre-medication, at 1, 2, 4, 8 and 24 hours (Table 14). In Stage 2, PK was measured on days 1 and 6 of the randomization period pre-medication, at 1, 2, 4 and 8 hours (Table 15).
The mean Cmax, Tmax and T1/2 and AUC of the squalamine ion following squalamine (ENT-01) oral dosing for Stage 1 patients. The PK analyses are only approximate, as the lower limit of the validated concentration range was 10 ng/ml; most of the measured concentrations fell below that value. The mean Cmax, Tmax and T1/2 and AUC of the squalamine ion following squalamine (ENT-01) oral dosing for Stage 2 patients. The PK analyses are only approximate, as the lower limit of the validated concentration range was 0.5 ng/ml.

[3] = tested on: patients with PD and constipation; details: in vivo
Experimental: In Stage 1, ten (10) PD patients received a single escalating dose of squalamine (ENT-01) every 3-7 days beginning at 25 mg and continuing up to 200 mg or the limit of tolerability, followed by 2-weeks of wash-out. Duration of this part of the trial was 22-57 days. The 10 subjects in the sentinel group were assigned to Cohort 1 and participated in 8 single dosing periods. Tolerability limits included diarrhea or vomiting.
Each dose period was staggered, so that subjects 1-2 were administered a single dose of the drug at the lowest dose of 25 mg. Once 24 hours have elapsed, and provided there are no safety concerns, the patient was sent home and brought back on day 4-8 for the next dose. During the days the subjects are home, they completed the daily diaries and e-mailed them to the study coordinators. Subjects 3-10 were dosed after the first 2 subjects have been observed for 72 hours, i.e. on Day 4. Subjects 1-2 were also brought back on Day 4-8 and given a single dose of 50 mg. Once another 24 hours have elapsed and provided there are no safety concerns, the patients were all sent home and instructed to return on Day 7 for the next dosing level. This single dosing regimen was continued until each subject was given a single dose of 200 mg or has reached a dose limiting toxicity (DLT). DLT was the dose which induces repeated vomiting, diarrhea, abdominal pain or symptomatic postural hypotension within 24 hours of dosing.
Adverse events were coded using the current version of MedDRA. Severity of AEs were assessed by investigators according to CTCAE (v4.03): Grade 1 is labeled as Mild, Grade 2 as Moderate, and Grade 3 and above as Severe. […] The number (percentage) of subjects who experienced an AE during escalation and fixed dosing periods were summarized by dose level and overall for each stage. The denominator for calculating the percentages were based on the number of subjects ever exposed to each dose and overall.

[4] = Solubility in water; format: physicochemical
[5] = tested on: C. elegans model of PD; details: cited from earlier work
[6] = Duration of the aminosterol-induced response after a single oral dose; format: in vivo, human; details: single 200 mg oral dose
Description: The invention is also based on the discovery of unexpected and unprecedented activity of orally or nasally administered squalamine and related aminosterols (e.g., aminosterol 1436). The activity relates to stimulating a sequence of events within the human GI tract with therapeutic value. With respect to this activity, the sequence of events stimulated by an aminosterol such as squalamine or aminosterol 1436 involves the induction of an intestinal secretory response followed by a period of “small intestinal quieting,” and the subsequent passage of a normally formed bowel movement. These events are best explained as a consequence of the stimulation of a heretofore unknown physiological gastrointestinal response, in this invention shown to be controlled or initiated by an effective oral dose of an aminosterol such as squalamine or the related aminosterol, 1436 (Aminosterol-Induced GI Response). The activity relates to stimulating the neural connections between the enteric nervous system and the brain with therapeutic value, which can thereby impact sleeping disorders, sleeping disturbances, or related symptoms, as described herein. With respect to this activity, the sequence of events stimulated by an aminosterol involves the entrainment of the circadian clock, the suprachiasmatic nucleus, and an improvement in the quality of sleep. […]

[7] = tested on: mice with constipation due to overexpression of human αS; experiment: Oral squalamine in mice with constipation due to overexpression of human αS; format: in vivo, mouse; details: orally administered (West et al, manuscript in preparation)
[8] = tested on: isolated colons; experiment: Isolated perfused colon, migrating muscular contractions (aged mouse; loperamide in young mouse)
Description: Isolated colons were mounted in an apparatus that permits continuous perfusion through the lumen, and the monitoring of the velocity, frequency and pressure of migrating muscular contractions (MMCs). Similar to the experience in humans, aging in mice is associated with diminished colonic peristaltic activity.
In humans, opiates markedly diminish GI motility and suppress fluid secretion causing constipation. […] When loperamide is introduced into the lumen of a young mouse colonic peristalsis is inhibited. When squalamine is added in presence of continued loperamide perfusion, the dysmotility is overridden.

[9] = tested on: colons from PD mice; experiment: Isolated colon motility, PD mice (human αSynuclein gene); set-up: species or system mouse
Description: Parkinson's disease is associated with varying degrees of constipation, typically beginning decades before diagnosis, and all too often has a profound negative impact on quality of life. It is believed that the ENS in PD is damaged earlier but by the same processes that damage the neurons of the CNS. In our clinical experience oral administration to several individuals with advanced Parkinson's disease corrected long standing constipation within days of initiation of treatment. We explored whether the human experience could be reproduced in the mouse. In the experiments illustrated below studies of colonic motility were conducted using organs from WT (1 yr old FVB/NJ) or PD mice, in which the murine αSynuclein gene has been excised and replaced by several copies of the human αSynuclein gene driven by the normal murine promoter.
The isolated colon from the PD strain presents a more sluggish peristaltic wave than that from the WT animal (black columns).

CC(C)[C@@H](CC[C@@H](C)[C@H]1CC[C@H]2[C@@H]3[C@H](O)C[C@H]4C[C@@H](NCCCNCCCCN)CC[C@]4(C)[C@H]3CC[C@]12C)OS(=O)(=O)O (single isomer, unassigned; ent-01) [ENT-01]
tolerability [1]: well tolerated
oral bioavailability ([1]; preclinical studies): about 0.1%
AUC0-8 hr ([2]; dose 75 mg): 59.0 ng·h/mL
Tmax (Median Value) ([2]; dose 75 mg): 3.0 h
Cmax ([2]; dose 75 mg): 10.0 ng/mL
AUC0-8 hr ([2]; dose 100 mg): 70.3 ng·h/mL
Tmax (Median Value) ([2]; dose 100 mg): 1.0 h
Cmax ([2]; dose 100 mg): 17.7 ng/mL
AUC0-8 hr ([2]; dose 175 mg): 66.8 ng·h/mL
Tmax (Median Value) ([2]; dose 175 mg): 2.0 h
Cmax ([2]; dose 175 mg): 11.8 ng/mL
Eye infection, Moderate [3]: 0 n, %
solubility in water ([4]; neutral pH): weakly soluble
solubility in water ([4]; pH<3.5 (the pH of gastric fluid)): readily dissolves
formation of aggregates of αS ([5]; in vivo (Perni et al. 2017)): inhibit the formation of aggregates

CC(C)[C@@H](CC[C@@H](C)[C@H]1CC[C@H]2[C@@H]3[C@H](O)C[C@H]4C[C@@H](NCCCNCCCCN)CC[C@]4(C)[C@H]3CC[C@]12C)OS(=O)(=O)O [squalamine]
duration of the aminosterol-induced response [6]: about 4 days
gastro-intestinal motility [7]: stimulates gastro-intestinal motility
colonic peristalsis ([8]; squalamine into the colonic lumen of the aged mouse): dramatic stimulation of peristalsis
dysmotility caused by loperamide ([8]; young mouse colon, squalamine added in presence of continued loperamide perfusion): overridden
muscle paralysis ([5]; C. elegans model of PD (Perni et al. 2017)): complete reversal of muscle paralysis
speed of the colonic peristaltic wave ([9]; FIG. 14B): normalizing the PD colon to that of the unstimulated WT mouse
force of peristaltic contractions ([9]; squalamine added to lumen, FIG. 14A): increases the force of contractions
